From US20080145313A1, “Compositions and Methods for the Treatment and Prevention of Neoplastic Disorders” (Genesis Research & Development Corporation Limited, priority 2006, published 2008)

Columns and labels:
A549 cells = assay: Growth inhibition of siRNA-transfected A549 cells, SYBR Green I DNA content; assay type: cell-based, human; settings: A549 cells, 10 nM siRNA, DNA content 96 hours after transfection, transporter gene targets
Method in brief: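 Growth read-out: cellular DNA quantified with SYBR Green I (485/535 nm) 96 h after transfection, cells frozen, thawed and lysed in PBS/1% Triton X-100, pH 7. Cells (A549, 5×10^3 cells/cm^2) received 10 nM siRNA by RNAiMAX; non-specific siRNA served as control; triplicate wells averaged.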

[1] = test system: target transcript mRNA in A549 cells; assay: Level of mRNA of target transcript in A549 cells by quantitative RT-PCR (Tables 12 and 13); assay type: cell-based, human; settings: 24 h post-transfection; for mRNA knockdown of transporter gene target transcript, 0.1 nM: 0.1 nM siRNA; for mRNA knockdown of transporter gene target transcript, 1 nM: 1 nM siRNA
Method in brief: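 Target mRNA was measured by SYBR Green quantitative RT-PCR using random-primed cDNA, normalised to HPRT and Lamin. Samples came from A549 cells 24 h post-transfection with 0.1, 1.0 or 10 nM siRNA.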

Row | Substance | Growth Inhibition in A549 cells by 10 nM siRNA (A549 cells) | mRNA knockdown of transporter gene target transcript, 0.1 nM [1] | mRNA knockdown of transporter gene target transcript, 1 nM [1]
1 | SEQ ID NO: 4904: siRNA targeting SLC7A11 (xCT) (chain 1 AGATAAATCAGCCCAGCAACTGCCA; chain 2 AGAUAAAUCAGCCCAGCAACUGCCA; Antisense strand given in DNA and RNA notation, chemistry not given here; one strand in two spellings) | − (no growth inhibition) | + (50-70% mRNA knockdown) | ++ (70-90% mRNA knockdown)
2 | SEQ ID NO: 4977: siRNA targeting ABCB1 (MDR1) (chain 1 AAACGATGAGCTATCACAATGGTGG; chain 2 AAACGAUGAGCUAUCACAAUGGUGG; chemistry not given here; one strand in two spellings) | − (no growth inhibition) | − (<50% mRNA knockdown) | − (<50% mRNA knockdown)
3 | SEQ ID NO: 4905: siRNA targeting SLC7A11 (xCT) (chain 1 ATTATGAGGAGTTCCACCCAGACTC; chain 2 AUUAUGAGGAGUUCCACCCAGACUC; Antisense strand given in DNA and RNA notation, chemistry not given here; one strand in two spellings) | ++ (inhibits by at least 75%) | ++ (70-90% mRNA knockdown) | ++ (70-90% mRNA knockdown)
4 | SEQ ID NO: 4974: siRNA targeting ABCC5 (MRP5) (chain 1 AACCTCTTCCATTAGAAACAAACTC; chain 2 AACCUCUUCCAUUAGAAACAAACUC; chemistry not given here; one strand in two spellings) | + (inhibits by at least 50%) | − (<50% mRNA knockdown) | + (50-70% mRNA knockdown)
5 | SEQ ID NO: 4975: siRNA targeting ABCC5 (MRP5) (chain 1 ATTCTGAGCTGAGAATGCATGGAGG; chain 2 AUUCUGAGCUGAGAAUGCAUGGAGG; chemistry not given here; one strand in two spellings) | ++ (inhibits by at least 75%) | − (<50% mRNA knockdown) | + (50-70% mRNA knockdown)
6 | SEQ ID NO: 4930: siRNA targeting SLC25A10 (DIC) (chain 1 TCCTGACGTTGACCAAGTCTGCGGG; chain 2 UCCUGACGUUGACCAAGUCUGCGGG; chemistry not given here; one strand in two spellings) | − (no growth inhibition) | ++ (70-90% mRNA knockdown) | ++ (70-90% mRNA knockdown)
7 | SEQ ID NO: 4913: siRNA targeting SLC19A2 (ThTr1) (chain 1 AATACAAGGAGACGGTCTGGCTTGG; chain 2 AAUACAAGGAGACGGUCUGGCUUGG; Antisense strand given in DNA and RNA notation, chemistry not given here; one strand in two spellings) | − (no growth inhibition) | ++ (70-90% mRNA knockdown) | ++ (70-90% mRNA knockdown)
8 | SEQ ID NO: 4953: siRNA targeting ATP6V1B2 (chain 1 ATGATATCAAGGAAGTCTTCGGCCA; chain 2 AUGAUAUCAAGGAAGUCUUCGGCCA; chemistry not given here; one strand in two spellings) | ++ (inhibits by at least 75%) | − (<50% mRNA knockdown) | + (50-70% mRNA knockdown)
9 | SEQ ID NO: 4897: siRNA targeting SLC2A5 (GLUT5) (chain 1 TTACAGACCACAGCAACGTCAAGGG; chain 2 UUACAGACCACAGCAACGUCAAGGG; Antisense strand given in DNA and RNA notation, chemistry not given here; one strand in two spellings) | ++ (inhibits by at least 75%) | +++ (>90% mRNA knockdown) | +++ (>90% mRNA knockdown)
10 | SEQ ID NO: 4961: siRNA targeting ATP6V1F (chain 1 ATGTCATCCCGGTTTAGAAATTGCC; chain 2 AUGUCAUCCCGGUUUAGAAAUUGCC; chemistry not given here; one strand in two spellings) | − (no growth inhibition) | ++ (70-90% mRNA knockdown) | ++ (70-90% mRNA knockdown)
11 | SEQ ID NO: 4916: siRNA targeting SLC23A2 (SVCT2) (chain 1 AATACTAGGAATATTGTCAGCATGG; chain 2 AAUACUAGGAAUAUUGUCAGCAUGG; Antisense strand given in DNA and RNA notation, chemistry not given here; one strand in two spellings) | − (no growth inhibition) | ++ (70-90% mRNA knockdown) | ++ (70-90% mRNA knockdown)
12 | SEQ ID NO: 4966: siRNA targeting ATP7A (chain 1 ATAGCTCCCAATTTGAGGTACTTGG; chain 2 AUAGCUCCCAAUUUGAGGUACUUGG; chemistry not given here; one strand in two spellings) | − (no growth inhibition) | − (<50% mRNA knockdown) | − (<50% mRNA knockdown)
13 | SEQ ID NO: 4948: siRNA targeting ATP2B4 (PMCA4) (chain 1 ATCTGAGTCTGGATACGGTTCAGGC; chain 2 AUCUGAGUCUGGAUACGGUUCAGGC; chemistry not given here; one strand in two spellings) | − (no growth inhibition) | − (<50% mRNA knockdown) | ++ (70-90% mRNA knockdown)
14 | SEQ ID NO: 4962: siRNA targeting ATP6V1F (chain 1 TGGAGTCCTTGGCGGCGTCATATGG; chain 2 UGGAGUCCUUGGCGGCGUCAUAUGG; chemistry not given here; one strand in two spellings) | − (no growth inhibition) | − (<50% mRNA knockdown) | + (50-70% mRNA knockdown)
